Test results reported in patent US20250090516A1, “DRUG FOR TREATING AF[…] NOVEL CORONAVIRUS INFECTION” (THE JIKEI UNIVERSITY, priority 2022, published 2025).

Experiments:
Assay type in all cases: in vivo, C57BL/6 mice
[1] = system: gene expression of IL-1β and IL-6 in the brains of S1 mice; assay: RT-qPCR of inflammatory cytokine genes in brains of S1 mice after intracerebroventricular PNU282987; conditions: PNU282987 400 nmol/mouse intracerebroventricularly on 7th day; brains collected one hour later; FIG. 14
[2] = system: gene expression of zinc finger protein 36 (Zfp36) in the brains of S1 mice; assay: RT-qPCR of Zfp36 in brains of S1 mice after PNU282987; conditions: PNU282987 400 nmol/mouse intracerebroventricularly; cDNA of Example 10; FIG. 15
Protocol: Therefore, to the S1 mice and the control mice, on the 7th day after nasal administration of S1/Adv or vector/Adv, PNU282987, which is an agonist specific to the a7 nicotinic acetylcholine receptor, was administered intracerebroventricularly at a dose of 400 nmol/mouse, and the therapeutic effect on brain inflammation in the S1 mice was examined.
One hour after the intracerebroventricular administration of PNU282987, the brains excluding the olfactory bulbs were collected, and RNA was purified with the RNeasy Mini Kit (QIAGEN). The purified RNA was used as a template to synthesize cDNA with the PrimeScript RT reagent Kit (Takara-Bio Inc.). Using the synthesized cDNA, the gene expression of interleukin-1β (IL-1β) and interleukin-6 (IL-6) was analyzed by RT-qPCR. The measurement results of 18S rRNA were used for normalization.
To elucidate the molecular mechanism of the therapeutic effect of PNU282987 on brain inflammation in Example 10, the impact of S1 and […] on the gene expression level of zinc finger protein 36 (Zfp36), which is a host protein with anti-inflammatory effects, was examined. Specifically, using the synthesized cDNA in Example 10, the gene expression of Zfp36 was analyzed by RT-qPCR. The measurement results of 18S rRNA were used for normalization.

[3] = system: S1 mice (COVID-19 sequela model animals); assay: Tail suspension test (depressive disorder-like behavior) after donepezil; conditions: donepezil 4.0 mg/kg/day via drinking water; 6th day after nasal S1/Adv; 10 minutes suspension; without donepezil, S1 mice significantly increased; FIG. 12
[4] = system: S1 mice (COVID-19 sequela model animals); assay: 10% weight-loaded forced swimming test (fatigue behavioral test) after donepezil; conditions: donepezil 4.0 mg/kg/day via drinking water; 6th day after nasal S1/Adv; without donepezil, S1 mice significantly shorter; FIG. 11

| SMILES | increased expression level of IL-1β gene in the brain of S1 mice [1] | increased expression level of IL-6 gene in the brain of S1 mice [1] | decrease in ZFP36 gene expression in S1 mice [2] | immobility time in the tail suspension test, S1 mice vs control mice [3] | swimming time, S1 mice vs control mice [4] |
| --- | --- | --- | --- | --- | --- |
| O=C(N[C@H]1CN2CCC1CC2)c1ccc(Cl)cc1 [PNU282987] | suppressed | suppressed | improved | – | – |
| COc1cc2c(cc1OC)C(=O)C(CC1CCN(Cc3ccccc3)CC1)C2.Cl (centres unmarked) [donepezil, 2-[(1-benzyl-4-piperidyl)methyl]-5,6-dimethoxyindan-1-one hydrochloride] | – | – | – | significantly decreased | no difference was observed |
